Measured values from patent US11021472B2, “Use of compounds comprising two or more hydrophobic domains and a hydrophilic domain comprising PEG moieties for stabilization of a cell” (Roche Diagnostics Operations, Inc., priority 2013, dated 2021).
Where “and” joins values, the source holds several entries; their conditions need not be identical. Equal entries are not always repeated. Where two headings read alike, the source gives them in different places.

How the values were obtained:
[1] = tested on: WBC; assay: WBC recovery rate after centrifugation (stabilization of cells); assay type: cell-based, human; details: for performance in WBC recovery rate after centrifugation (ranking): Centrifugation 20 min, 10 min, 1 h; for WBC recovery rate after centrifugation: dependence on molecule concentration: Centrifugation 10 min
Procedure: (§1) Centrifugation characteristics: 10 min, 300×g.
as §1
The respective left, middle and right columns per assay represent different Experimenters 1, 2 and 3. […] Centrifugation characteristics: 10 min, 300×g. Molecule: Cholesteryl-TEG-Cholesteryl-TEG-(SpacerC18)7-Fluos-Biotin-TEG.
(§2) Following molecules were tested: 1234: 5′-(Cholesteryl-TEG)2-Spacer C18-dT-Biotin-TEG-3′; 1248: 3′-(Cholesteryl-TEG)2-PEG2000-Fluos-Biotin-TEG-5′ INVERS; 1254: 3′-(Cholesteryl-TEG)2-SpacerC18-Fluos-Biotin-TEG-5′ INVERS; 1255: 3′-(Myristic acid)2-PEG2000-dT-Biotin-TEG-5′ INVERS. […] Centrifugation characteristics: 20 min, 300×g. Respective left column: 10 min incubation with molecule. Respective middle column: 1 h min incubation with molecule. Respective right column: 2 h incubation with molecule.
Following molecules were tested: 1255: 3′-(Myristic acid)2-PEG2000-dT-Biotin-TEG-5′ INVERS; 1234: 5′-(Cholesteryl-TEG)2-Spacer C18-dT-Biotin-TEG-3′; 1248: 3′-(Cholesteryl-TEG)2-PEG2000-Fluos-Biotin-TEG-5′ INVERS; 1254: 3′-(Cholesteryl-TEG)2-SpacerC18-Fluos-Biotin-TEG-5′ INVERS. […] Centrifugation characteristics: 20 min, 500×g. Respective left column: 10 min incubation with molecule. Respective middle column: 1 h min incubation with molecule. Respective right column: 3 h incubation with molecule.
as §2, with “tested: 1255: 3′-(Myristic acid)2-PEG2000-dT-Biotin-TEG-5′ INVERS;” for “tested:”, “3′-(Cholesteryl-TEG)2-SpacerC18-Fluos-Biotin-TEG-5′” for “3′-(Cholesteryl-TEG)2-SpacerC18-Fluos-Biotin-TEG-5′ INVERS; 1255: 3′-(Myristic acid)2-PEG2000-dT-Biotin-TEG-5′”, “1000×g.” for “300×g.”
Stabilization is typically determined on a population of cells, e.g. 2, 10, 100 or more cells, and the respective mean viability of the cell populations are compared. […] Viability may be determined by determining cell morphology, cell viability and/or cell recovery. Methods for determining cell morphology, cell viability and cell recovery are known in the art. […] For determining cell morphology, visual inspection by microscopy may be performed. For determining cell viability, a cell viability test using WST-1 proliferation kit (RAS) may be performed.

[2] = tested on: white blood cells (WBCs); details: 300,000 WBCs/well
Procedure: In particular, the performance of a single cholesterol-molecule and different dual-linker molecules (i.e. containing two hydrophobic moieties) was tested. In detail, immobilization of white blood cells (WBCs) on a Streptavidin-coated surface using different linker molecules was tested on a 12-well plate: 300,000 WBCs/well. This was followed by the measurement of the cell recovery rate after immobilization and washing of the cells using the Cellavista instrument (10×Nuclei Operator s9s5).

[3] = tested on: WBC
Procedure: 4× determination. Row A: 200 μl PBS introduced, 1 nmol of compound added thereto respectively, mixed, incubated about 30 min, washed 2×PBS, 800 μl PBS introduced, 300.000 WBC (untreated) added. Row B: 800 μl PBS introduced, 300.000 WBC (untreated) added. Row C: 10×10^6 WBC in 1 ml with 10 nmol compound of invention 10 min incubated, 800 μl PBS/Well introduced, 300.000 treated WBC respectively. The first MTP plate washed after 30 min 2× with PBS, overlayed with Höchst and incubated for 15 min.>Cellavista (Operator s9s5) measured. The second plate was measured after 90 min. The third plate was measured after 150 min.
The experiments were performed for different incubation times, as shown below:
As starting material 5′-(Cholesteryl-TEG)2-PEG2000-Fluos-Biotin_TEG-3′ INVERS (14530 pmol/μl) (Internal Reference No.: 29.891250), and a streptavidin treated MTP (Microcoat), 12 Well plate were used.
Erythrocyte lysis was performed as follows:
EDTA-whole blood 59.423 6.400 WBC/μl (Ambulanz Roche)
lysis buffer: 100 mM NH4Cl+5 mM Hepes+0.5 mM KHCO3+0.1 mM EDTA-K
Ca 1×8 ml whole blood filled in 50 ml Falcon tube with lysis buffer, incubate at room temperature for 10 min
15 min at 250 g centrifugated, pellet resuspended by pipetting in and out in lysis buffer; filled to 50 ml with lysis buffer
15 min 250 g centrifugated, pellet resuspended with PBS, filled to 50 ml with PBS, 15 min 250 g centrifugated, filled to 50 ml with PBS
The design of the experiment on the plate is explained below (see FIG. 2):
Row A: 200 μl PBS introduced, 1 nmol of compound added thereto respectively, mixed, incubated about 30 min, washed 2× PBS, • 800 μl PBS introduced, 300.000 WBC (untreated) added.
Row B: 800 μl PBS introduced, 300.000 WBC (untreated) added.

[4] = tested on: Epithelial cells; assay: Labelling (staining) of cells with labelled molecules; assay type: cell-based
Description: (§3) As shown in the examples, a compound for use according to the invention, wherein the compound comprises a label moiety, is contacted with a cell. As labelling is preferably done with viable or potentially viable cells, the cells are typically present in an aqueous solution, which is preferably buffered and/or contains nutrients, e.g. the cells are suspended in PBS. The labeled compound for use according to the invention may be added to the cells, e.g. in form of a solution, e.g. as aqueous solution by methods known in the art, as pipetting.

[5] = tested on: MDA-MB468; assay: as above; assay type: cell-based
Description: as §3

[6] = tested on: U937; assay: as above; assay type: cell-based
Description: as §3

[7] = tested on: WBCs; assay: as above; assay type: cell-based
Description: as §3

[8] = tested on: WBCs; assay: Recovery rate of cells after immobilization on streptavidin (SA) plate; assay type: cell-based; details: for Remarks (staining): staining of the cells by the molecule
Procedure: X=hydrophobic moiety, […]=fluorescein In the following experiment, the recovery rate of cells was determined.

[9] = 300×g, 2 h incubation with molecule
[10] = 500×g, 3 h incubation with molecule
[11] = Sample 1, compound concentration: 1 nmol/10e6 WBCs
[12] = Sample 1, first table, concentration not given
[13] = Sample 2, Compound Concentration: 100 pmol/10e6 WBCs
[14] = Sample 2, Compound Concentration: 1 nmol/10e6 WBCs

3′-(Myristic acid)2-PEG2000-dT-Biotin-TEG-5′ INVERS [compound 1255]
performance in WBC recovery rate after centrifugation (ranking) [1, 9]: followed by compound 1255 and 1254 | performance in WBC recovery rate after centrifugation (ranking) [1, 10]: followed by molecule 1255 and 1254

5′-(Cholesterol-TEG)1-Doubler-dT-Biotin-3′ [29.891272]
cell count per well [2, 11]: 199973 and 220701 and 228481 | cell count per well [2, 12]: 147132 and 179643 and 181620 | Mean (cell count) [2, 13]: 186316.33 | cell count per well [2, 13]: 161504 and 201424 and 196021 | Mean (cell count) [2, 14]: 247418.33 | cell count per well [2, 14]: 241232 and 254894 and 246129

5′-(Cholesteryl-TEG)2-PEG2000-Fluos-Biotin_TEG-3′ INVERS [29.891250]
MW (mean WBC count; target: 300.000 WBC) ([3]; 30 min, WBC treated): 231829.75 | WBC recovery rate [%] (Mean %) ([3]; 30 min, WBC treated: molecule + cells): 77.28% | MW (mean WBC count; target: 300.000 WBC) ([3]; 30 min, Well treated): 64909 | WBC recovery rate [%] (Mean %) ([3]; 30 min, well treated: molecule bound to surface): 21.64% | MW (mean WBC count; target: 300.000 WBC) ([3]; 90 min, WBC treated): 249346.25 | WBC recovery rate [%] (Mean %) ([3]; 90 min, WBC treated: molecule + cells, listed as molecule useful in methods of invention): 83.12% and 83.1% | MW (mean WBC count; target: 300.000 WBC) ([3]; 90 min, Well treated): 142865 | WBC recovery rate [%] (Mean %) ([3]; 90 min, well treated: molecule bound to surface, listed as molecule useful in methods of invention): 47.62% and 47.6% | MW (mean WBC count; target: 300.000 WBC) ([3]; 120 min, WBC treated): 258692.75 | WBC recovery rate [%] (Mean %) ([3]; 120 min, WBC treated: molecule + cells): 86.23% | MW (mean WBC count; target: 300.000 WBC) ([3]; 120 min, Well treated): 171062.75 | WBC recovery rate [%] (Mean %) ([3]; 120 min, well treated: molecule bound to surface): 57.02%

5′-(Cholesteryl-TEG)2-Spacer C12-dT-Biotin_TEG-3′ INVERS [29.891253]
cell count per well [2, 11]: 218861 and 221471 and 208802 | cell count per well [2, 12]: 105061 and 128195 and 139678 | Mean (cell count) [2, 13]: 187757.67 | cell count per well [2, 13]: 178919 and 197130 and 187224 | Mean (cell count) [2, 14]: 237052.33 | cell count per well [2, 14]: 239105 and 240632 and 231420

5′-(Cholesteryl-TEG)2-Spacer C18-Fluos-Biotin_TEG-3′ INVERS [29.891254]
cell count per well [2, 11]: 244649 and 234262 and 260760 | cell count per well [2, 12]: 157660 and 190148 and 170850 | Mean (cell count) [2, 13]: 197067.00 | cell count per well [2, 13]: 205917 and 185100 and 200184 | Mean (cell count) [2, 14]: 245376.00 | cell count per well [2, 14]: 247428 and 244396 and 244304 | performance in WBC recovery rate after centrifugation (ranking) [1, 9]: followed by compound 1255 and 1254 | performance in WBC recovery rate after centrifugation (ranking) [1, 10]: followed by molecule 1255 and 1254

5′-(Cholesteryl-TEG)2-Spacer C18-dT-Biotin-TEG-3′ [compound 1234]
performance in WBC recovery rate after centrifugation (ranking) [1, 9]: best performance | performance in WBC recovery rate after centrifugation (ranking) [1, 10]: best performance

5′-Cholesteryl-TEG-PEG2000-Fluos-3′ [BMO 29.891132]
staining of cells by labelled molecule [4]: ✓ | staining of cells by labelled molecule [5]: ✓ | staining of cells by labelled molecule [6]: ✓ | staining of cells by labelled molecule [7]: ✓ not all

5′-CholesterylTEG-CholesterylTEG-(SpacerC18)7-Fluos-BiotinTEG-3′ [BMO 29.891222]
WBC recovery rate after centrifugation: dependence on molecule concentration ([1]; 300×g): the higher the molecule concentration, the higher the cell recovery rate after centrifugation | WBC recovery rate after centrifugation: dependence on molecule concentration ([1]; 300×g, listed as A): The higher the molecule concentration, the higher the cell recovery rate after centrifugation | cell stabilization: dependence on the experimenter ([1]; Experimenters 1, 2 and 3, centrifugation 10 min, 300×g): independent on the experimenter

5′-CholesterylTEG-CholesterylTEG-PEG2000-Fluos-BiotinTEG-3′ [BMO 29.891180]
Remarks (staining) [8]: strong

5′-Myristic acid-Myristic acid-(SpacerC18)7-Fluos-BiotinTEG-3′ [BMO 29.891214]
Remarks (staining) [8]: strong

5′-Myristic acid-Myristic acid-PEG2000-Fluos-BiotinTEG-3′ [BMO 29.891194]
Remarks (staining) [8]: weak and stronger

5′-Myristic acid-Myristic acid-SpacerC18-Fluos-BiotinTEG-3′ [BMO 29.891213]
Remarks (staining) [8]: strong

5′-Myristic acid-SpacerC9-Myristic acid-PEG2000-Fluos-BiotinTEG-3′ [BMO 29.891197]
Remarks (staining) [8]: weak

5′-alphaTocopherolTEG-PEG2000-Fluos-3′ [BMO 29.891131]
staining of cells by labelled molecule [4]: ✓ | staining of cells by labelled molecule [5]: ✓ | staining of cells by labelled molecule [6]: ✓ | staining of cells by labelled molecule [7]: ✓ not all

CCCCCCCCCCCCCCCCCCCCCCN1/C(=C/C=C/c2oc3ccccc3[n+]2CCC)Oc2ccccc21.[I-] [PKH2]
staining of cells by labelled molecule [4]: ✓ not all | staining of cells by labelled molecule [7]: ✓

Biotin-PEG-Lys-(C14)2 [15.260268]
Recovery Rate ([8]; 1.77 nmol/10e6 Cells): 85.72%

Biotin-PEG-Lysin-(C18)2 [HH1749]
WBC recovery rate after centrifugation: dependence on molecule concentration ([1]; 300×g): The higher the concentration of the molecule, the higher the cell recovery rate after centrifugation

Biotin-PEG-Lysin-(C18)2 [HH1750]
WBC recovery rate after centrifugation: dependence on molecule concentration ([1]; 300×g): The higher the concentration of the molecule, the higher the cell recovery rate after centrifugation

Biotin-PEG-Lysin-(C18)2 [HH1755]
WBC recovery rate after centrifugation: dependence on molecule concentration ([1]; 300×g): The higher the concentration of the molecule, the higher the cell recovery rate after centrifugation

Sulfo-JA133-phenylboronic acid [BMO: 15.000078]
staining of cells by labelled molecule [4]: ✓ | staining of cells by labelled molecule [7]: ✓ not all
